Reference: ChEMBL document CHEMBL3616440, “Non-basic azolotriazinone MCHR1 antagonists for the treatment of obesity: An empirical brain-exposures-driven candidate selection for in vivo efficacy studies” (Bioorg Med Chem Lett, 2015)
One block for each molecule: values may come before it.

Key:
Brain [1] = test: Free drug level in Sprague-Dawley rat brain assessed as 6-(4-chlorophenyl)-3-(4-(2-cyclopropyl-2-hydroxyethoxy)-3-methoxyphenyl)pyrrolo[1,2-f][1,2,4]triazin-4(3H)-one level at 30 mg/kg, po qd at 20 hrs; format: ADME, organism-based; conditions: in vivo
Rattus norvegicus [2] = test: Antiobesity activity in Sprague-Dawley rat assessed as body weight reduction at 3 mg/kg, po qd after 4 days relative to control; format: functional; conditions: 96 h
Brain [3] = test: Drug concentration in Sprague-Dawley rat brain assessed as 6-(4-chlorophenyl)-3-(4-(2-cyclopropyl-2-hydroxyethoxy)-3-methoxyphenyl)pyrrolo[1,2-f][1,2,4]triazin-4(3H)-one level at 10 mg/kg, po qd at 20 hrs; format: ADME, organism-based; conditions: in vivo, read-out: Drug uptake
Brain [4] = test: Free drug level in Sprague-Dawley rat brain assessed as 6-(4-chlorophenyl)-3-(4-(2-cyclopropyl-2-hydroxyethoxy)-3-methoxyphenyl)pyrrolo[1,2-f][1,2,4]triazin-4(3H)-one level at 3 mg/kg, po qd at 20 hrs; format: ADME, organism-based; conditions: in vivo
Nucleic Acid [5] = test: Ratio of drug level in Sprague-Dawley rat brain to plasma assessed as 6-(4-chlorophenyl)-3-(4-(2-cyclopropyl-2-hydroxyethoxy)-3-methoxyphenyl)pyrrolo[1,2-f][1,2,4]triazin-4(3H)-one level at 10 mg/kg, po qd; format: ADME, organism-based
Brain [6] = test: Drug concentration in Sprague-Dawley rat brain assessed as 6-(4-chlorophenyl)-3-(4-(2-cyclopropyl-2-hydroxyethoxy)-3-methoxyphenyl)pyrrolo[1,2-f][1,2,4]triazin-4(3H)-one level at 30 mg/kg, po qd at 20 hrs; format: ADME, organism-based; conditions: in vivo, read-out: Drug uptake
[7] = Ratio of free drug level in brain of Sprague-Dawley rat assessed as 6-(4-chlorophenyl)-3-(4-(2-cyclopropyl-2-hydroxyethoxy)-3-methoxyphenyl)pyrrolo[1,2-f][1,2,4]triazin-4(3H)-one level at 10 mg/kg, po to Ki for rat MCHR1; format: ADME, organism-based; conditions: in vivo
Rattus norvegicus [8] = test: Antiobesity activity in Sprague-Dawley rat assessed as body weight reduction at 10 mg/kg, po qd after 4 days relative to control; format: functional; conditions: 96 h
Brain [9] = test: Drug concentration in Sprague-Dawley rat brain assessed as 6-(4-chlorophenyl)-3-(4-(2-cyclopropyl-2-hydroxyethoxy)-3-methoxyphenyl)pyrrolo[1,2-f][1,2,4]triazin-4(3H)-one level at 10 mg/kg, po qd at 8 hrs; format: ADME, organism-based; conditions: in vivo, read-out: Drug uptake
[10] = Ratio of free drug level in brain of Sprague-Dawley rat assessed as 6-(4-chlorophenyl)-3-(4-(2-cyclopropyl-2-hydroxyethoxy)-3-methoxyphenyl)pyrrolo[1,2-f][1,2,4]triazin-4(3H)-one level at 3 mg/kg, po to Ki for rat MCHR1; format: ADME, organism-based; conditions: in vivo
Plasma [11] = test: Fraction unbound in Sprague-Dawley rat plasma assessed as 6-(4-chlorophenyl)-3-(4-(2-cyclopropyl-2-hydroxyethoxy)-3-methoxyphenyl)pyrrolo[1,2-f][1,2,4]triazin-4(3H)-one level; format: ADME, cell-free
Brain [12] = test: Free drug level in Sprague-Dawley rat brain assessed as 6-(4-chlorophenyl)-3-(4-(2-cyclopropyl-2-hydroxyethoxy)-3-methoxyphenyl)pyrrolo[1,2-f][1,2,4]triazin-4(3H)-one level at 10 mg/kg, po qd at 20 hrs; format: ADME, organism-based; conditions: in vivo
[13] = Ratio of free drug level in brain of Sprague-Dawley rat assessed as 6-(4-chlorophenyl)-3-(4-(2-cyclopropyl-2-hydroxyethoxy)-3-methoxyphenyl)pyrrolo[1,2-f][1,2,4]triazin-4(3H)-one level at 30 mg/kg, po to Ki for rat MCHR1; format: ADME, organism-based; conditions: in vivo
Rattus norvegicus [14] = test: Antiobesity activity in Sprague-Dawley rat assessed as body weight reduction at 30 mg/kg, po qd after 4 days relative to control; format: functional; conditions: 96 h
Brain [15] = test: Drug concentration in Sprague-Dawley rat brain assessed as 6-(4-chlorophenyl)-3-(4-(2-cyclopropyl-2-hydroxyethoxy)-3-methoxyphenyl)pyrrolo[1,2-f][1,2,4]triazin-4(3H)-one level at 3 mg/kg, po qd at 20 hrs; format: ADME, organism-based; conditions: in vivo, read-out: Drug uptake
Plasma [16] = test: Plasma concentration in Sprague-Dawley rat assessed as 6-(4-chlorophenyl)-3-(4-(2-cyclopropyl-2-hydroxyethoxy)-3-methoxyphenyl)pyrrolo[1,2-f][1,2,4]triazin-4(3H)-one level at 10 mg/kg, po qd at 8 hrs; format: ADME, organism-based; conditions: in vivo
Nucleic Acid [17] = test: Ratio of drug level in Sprague-Dawley rat brain to plasma assessed as (S)-6-(5-chloropyridin-2-yl)-3-(4-(3-(ethylsulfonyl)-2-hydroxypropoxy)-3-methoxyphenyl)pyrrolo[1,2-f][1,2,4]triazin-4(3H)-one level at 10 mg/kg, po qd; format: ADME, organism-based
Brain [18] = test: Drug concentration in Sprague-Dawley rat brain assessed as (S)-6-(5-chloropyridin-2-yl)-3-(4-(3-(ethylsulfonyl)-2-hydroxypropoxy)-3-methoxyphenyl)pyrrolo[1,2-f][1,2,4]triazin-4(3H)-one level at 10 mg/kg, po qd at 8 hrs; format: ADME, organism-based; conditions: in vivo, read-out: Drug uptake
Plasma [19] = test: Plasma concentration in Sprague-Dawley rat assessed as (S)-6-(5-chloropyridin-2-yl)-3-(4-(3-(ethylsulfonyl)-2-hydroxypropoxy)-3-methoxyphenyl)pyrrolo[1,2-f][1,2,4]triazin-4(3H)-one level at 10 mg/kg, po qd at 8 hrs; format: ADME, organism-based; conditions: in vivo
Brain [20] = test: Drug concentration in Sprague-Dawley rat brain assessed as 6-(5-chloropyrimidin-2-yl)-3-(4-(2-hydroxy-2-methylpropoxy)-3-methoxyphenyl)pyrrolo[1,2-f][1,2,4]triazin-4(3H)-one level at 5 mg/kg, po qd at 8 hrs; format: ADME, organism-based; conditions: in vivo, read-out: Drug uptake
Plasma [21] = test: Plasma concentration in Sprague-Dawley rat assessed as 6-(5-chloropyrimidin-2-yl)-3-(4-(2-hydroxy-2-methylpropoxy)-3-methoxyphenyl)pyrrolo[1,2-f][1,2,4]triazin-4(3H)-one level at 5 mg/kg, po qd at 8 hrs; format: ADME, organism-based; conditions: in vivo
Nucleic Acid [22] = test: Ratio of drug level in Sprague-Dawley rat brain to plasma assessed as 6-(5-chloropyrimidin-2-yl)-3-(4-(2-hydroxy-2-methylpropoxy)-3-methoxyphenyl)pyrrolo[1,2-f][1,2,4]triazin-4(3H)-one level at 5 mg/kg, po qd; format: ADME, organism-based

Drug uptake(free) (Brain [1]): 44 nM
concentration (Brain [3]): 7.98 µM
Drug uptake(free) (Brain [4]): 10 nM
BPR (Nucleic Acid [5]): 3
concentration (Brain [6]): 14.8 µM
Ratio [7]: 8.6
concentration (Brain [9]): 3.74 µM
Ratio [10]: 3.6
Fu (Plasma [11]): 0.3%
Drug uptake(free) (Brain [12]): 24 nM
Ratio [13]: 16
concentration (Brain [15]): 3.42 µM
concentration (Plasma [16]): 1.25 µM
SMILES: COc1cc(-n2cnn3cc(-c4ccc(Cl)cc4)cc3c2=O)ccc1OCC(OC(=O)[C@@H](N)C(C)C)C1CC1 (some centres not stated)
inhibition in vivo at 3 mg/kg (Rattus norvegicus [2]): 0%
inhibition in vivo at 10 mg/kg (Rattus norvegicus [8]): 0%
inhibition in vivo at 30 mg/kg (Rattus norvegicus [14]): 2.5%

BPR (Nucleic Acid [17]): 0.03
concentration (Brain [18]): 0.401 µM
concentration (Plasma [19]): 15.6 µM
SMILES: CCS(=O)(=O)C[C@H](COc1ccc(-n2cnn3cc(-c4ccc(Cl)cn4)cc3c2=O)cc1OC)OC(=O)CN

concentration (Brain [20]): 1.43 µM
concentration (Plasma [21]): 2.71 µM
BPR (Nucleic Acid [22]): 0.5
SMILES: COc1cc(-n2cnn3cc(-c4ncc(Cl)cn4)cc3c2=O)ccc1OCC(C)(C)OC(=O)CN
